Assay results taken from ChEMBL document CHEMBL4706632, “Development of Potential Antitumor Agents from the Scaffolds of Plant-Derived Terpenoid Lactones” (J Med Chem, 2020).

What was measured:
Format in all cases: functional, cell-based
[1] = test system: MDA-MB-231; test: Cytotoxicity against human MDA-MB-231 cells incubated for 48 hrs by MTT assay; settings: MDA-MB-231, 48 h
[2] = test system: HCT-15; test: Cytotoxicity against human HCT-15 cells incubated for 48 hrs by MTT assay; settings: HCT-15, 48 h
[3] = test system: LNCaP C4-2B; test: Cytotoxicity against human LNCaP C4-2B cells incubated for 48 hrs by MTT assay
[4] = test system: SW1990; test: Antiproliferative activity against human SW1990 incubated for 72 hrs by sulphorhodamine B assay; settings: SW1990, 72 h
[5] = test system: PANC-1; test: Cytotoxicity against human Panc-1 cells incubated for 72 hrs by sulphorhodamine B assay; settings: PANC-1, 72 h
[6] = test system: MCF7; test: Cytotoxicity against human MCF-7 cells incubated for 72 hrs by MTT assay; settings: MCF7, 72 h
[7] = test system: MDA-MB-231; test: Cytotoxicity against human MDA-MB-231 cells incubated for 72 hrs by MTT assay; settings: MDA-MB-231, 72 h
[8] = test system: LNCaP; test: Cytotoxicity against human LNCAP cells incubated for 48 hrs clonogenic survival assay; settings: 48 h
[9] = test system: BGC-823; test: Cytotoxicity against human BGC-823 cells by MTT assay
[10] = test system: HepG2; test: Cytotoxicity against human HepG2 cells by MTT assay
[11] = test system: HCT-116; test: Cytotoxicity against human HCT-116 cells by MTT assay
[12] = test system: P388; test: Cytotoxicity against mouse P388 cells incubated for 48 hrs by MTT assay; settings: P388, 48 h
[13] = test system: HepG2; test: Cytotoxicity against human HepG2 cells incubated for 48 hrs by alamarblue reagent based assay; settings: HepG2, 48 h
[14] = test system: MCF7; test: Cytotoxicity against human MCF7 cells incubated for 48 hrs by alamarblue reagent based assay; settings: MCF7, 48 h
[15] = test system: HCT-116; test: Antiproliferative activity against human HCT-116 cells incubated for 72 hrs by WST-1 assay; settings: HCT-116, 72 h
[16] = test system: A-431; test: Antiproliferative activity against human A-431 cells incubated for 72 hrs by Sulforhodamine B assay; settings: A-431, 72 h
[17] = test system: A549; test: Antiproliferative activity against human A549 cells incubated for 72 hrs by Sulforhodamine B assay; settings: A549, 72 h
[18] = Antiproliferative activity against human U87-MG cells incubated for 72 hrs by Sulforhodamine B assay; settings: U-87 MG
[19] = test system: L1210; test: Cytotoxicity against mouse L1210 cells
[20] = test system: HCT-15; test: Cytotoxicity against human HCT-15 cells by SRB staining assay
[21] = test system: SK-OV-3; test: Cytotoxicity against human SK-OV-3 cells by SRB staining assay
[22] = test system: A549; test: Cytotoxicity against human A549 cells by SRB staining assay
[23] = test system: SK-MEL-2; test: Cytotoxicity against human SK-MEL-2 cells by SRB staining assay
[24] = test system: XF498; test: Cytotoxicity against human XF498 cells by SRB staining assay
[25] = test system: HepG2; test: Cytotoxicity against human HepG2 cells incubated for 48 hrs by MTT assay; settings: HepG2, 48 h
[26] = test system: PANC-1; test: Cytotoxicity against human Panc-1 cells incubated for 48 hrs by MTT assay; settings: PANC-1, 48 h
[27] = test system: HeLa; test: Cytotoxicity against human HeLa cells incubated for 48 hrs by MTT assay
[28] = test system: AGS; test: Cytotoxicity against human AGS cells incubated for 48 hrs by MTT assay

CC1=C2C(=C[C@H]3[C@]4(C)CCCC(C)(C)[C@H]4CC[C@]34O[C@H]24)OC1=O
IC50 [1]: > 50 µM
IC50 [2]: > 50 µM
IC50 [3]: 10 µM

CC1(C)CCC[C@]2(C)[C@@H]1CC[C@@]13O[C@@H]1C1=C(CO)C(=O)OC1=C[C@@H]23
IC50 [1]: 8.8 µM
IC50 [2]: 13 µM
IC50 [3]: 2.2 µM

CC1(C)CCC[C@]2(C)[C@@H]1CC[C@@]13O[C@@H]1C1=C(CO)C(=O)O[C@]14O[C@@H]4[C@@H]23
IC50 [1]: > 50 µM
IC50 [2]: > 50 µM
IC50 [3]: 12 µM

COC(=O)[C@@]12OC[C@]34[C@H]([C@@H](O)[C@@H]1O)[C@@]1(C)C=C(O[C@@H]5O[C@H](CO)[C@@H](O)[C@H](O)[C@H]5O)C(=O)[C@@H](C)[C@@H]1C[C@H]3OC(=O)[C@H](OC(=O)/C=C(\C)C(C)C)[C@@H]24
IC50 [4]: > 10 µM
IC50 [5]: > 10 µM

COC(=O)[C@@]12OC[C@]34[C@H]([C@@H](O)[C@@H]1O)[C@@]1(C)C=C(O[C@@H]5O[C@H](CO)[C@@H](O)[C@H](O)[C@H]5O)C(=O)[C@@H](C)[C@@H]1C[C@H]3OC(=O)[C@H](OC(=O)CC(C)C)[C@@H]24
IC50 [6]: > 50 µM
IC50 [4]: > 100 µM
IC50 [7]: > 50 µM
IC50 [5]: > 100 µM

C/C=C(/C)C(=O)O[C@H]1C(C)=C2[C@H]([C@@H]1OC(=O)CCCCCCC)[C@@](C)(OC(C)=O)C[C@H](OC(=O)CCCCCCCCCCCNC(=O)[C@@H](N)CC(C)C)[C@@]1(O)[C@H]2OC(=O)[C@@]1(C)O
IC50 [8]: 0.014 µM

CC(C)[C@]1(O)[C@H](O)[C@@H]2O[C@]23[C@]2(O[C@H]2C[C@H]2C4=C(CC[C@@]23C)C(=O)OC4)[C@@H]1O
IC50 [9]: > 10 µM
IC50 [10]: > 10 µM
IC50 [11]: > 10 µM

CC(C)[C@H]1OC(=O)C=C2[C@@]13O[C@@H]3[C@H]1OC(=O)[C@@]3(C)CCC[C@@]2(C)[C@@H]13
IC50 [12]: 0.24 µM

C=C1C(=O)O[C@@H]2C3O[C@]3(C)CC/C=C(\C)CC[C@@H]12 (some centres undefined)
IC50 [13]: 17 µM
IC50 [14]: 11 µM

COC(=O)[C@@]12OC[C@]34[C@H]([C@@H](O)[C@@H]1O)[C@@]1(C)CC(=O)C(O)=C(C)[C@@H]1C[C@H]3OC(=O)[C@H](OC(=O)C=C(C)C)[C@@H]24
IC50 [6]: 0.083 µM
IC50 [4]: 0.1 µM
IC50 [7]: 0.081 µM
IC50 [5]: 0.36 µM
IC50 [15]: 0.067 µM

C[C@H](CO[C@@H]1O[C@H](CO)[C@@H](O)[C@H](O)[C@H]1O)[C@H]1OC(=O)C=C2[C@@]13O[C@@H]3[C@H]1OC(=O)[C@@]3(C)[C@@H](O)CC[C@@]2(C)[C@@H]13
IC50 [16]: > 50 µM
IC50 [17]: > 50 µM
IC50 [18]: > 50 µM

C=C1[C@@H](O)[C@@]2(O)OC[C@@]34[C@H]1[C@@H](OC(=O)/C=C(\C)CCCCC)C(=O)O[C@@H]3C[C@H]1C(C)=CC(=O)[C@@H](O)[C@]1(C)[C@@H]24
IC50 [19]: 0.09 µM

C[C@H](CO)[C@H]1OC(=O)C=C2[C@@]13O[C@@H]3[C@H]1OC(=O)[C@@]3(C)[C@@H](O)CC[C@@]2(C)[C@@H]13
IC50 [16]: 4.6 µM
IC50 [17]: 1.1 µM
IC50 [18]: 4 µM

CC(=O)O[C@@H]1C[C@H](O)[C@@]23COC(O)[C@]1(C)[C@@H]2C[C@@H](O)[C@@]1(C)[C@@H]2C(=O)C[C@@H](c4ccoc4)[C@]2(C)[C@@H](O)C(=O)[C@@H]13 (some centres undefined)
IC50 [20]: 3 µM
IC50 [21]: 26 µM
IC50 [22]: 1.7 µM
IC50 [23]: 0.71 µM
IC50 [24]: 3.8 µM

C/C1=C\CC[C@@]2(C)O[C@H]2[C@H]2OC(=O)C(CNc3ccn(C4OC(CO)[C@H](O)[C@@H]4O)c(=O)n3)[C@@H]2CC1 (some centres undefined)
IC50 [13]: 0.24 µM
IC50 [14]: 5.2 µM

CC(C)[C@H]1OC(=O)C=C2[C@@]13O[C@@H]3[C@H]1OC(=O)[C@@]3(C)C[C@@H](O)C[C@@]2(C)[C@@H]13
IC50 [25]: 3.1 µM
IC50 [16]: 0.21 µM
IC50 [26]: > 40 µM
IC50 [1]: > 40 µM
IC50 [17]: 0.57 µM
IC50 [27]: 0.6 µM
IC50 [18]: 0.43 µM
IC50 [28]: 1.4 µM
